Data: patent EP4186488A1, “A TOPICAL COMPOSITION” (Unilever IP Holdings B.V., priority 2021, dated 2023)

Test system: Human primary melanocytes
Assay: melanin content assay (MCA)
Assay type: cell-based
Details: 72 hours incubation with active(s), wt% of active(s) as listed per example, OD 405nm, untreated cells = 100% melanin content
Description: In-vitro studies on the effect of the combination of the actives on melanin inhibition using melanin content assay (MCA) was used. The method is described below. Human primary melanocytes were grown in melanocytes growth medium (MGM) with human melanocyte growth supplement. 500 µL/well (5X10^4 cells/well) of this solution was plated in a 24 wells plate and incubated in an incubator (Thermo Scientific, Model 3111) at 37°C with 5% CO2 atmosphere. After 24 hours of incubation, cell cultures were treated with the lead actives either dissolved in water or DMSO. The cells were again incubated for 72 hours in an incubator (Thermo Scientific, Model 3111; conditions: 5% CO2, at 37°C). Comparative vehicle controls of 0.1 % (v/v) DMSO or media control (for aqueous actives) were also set up simultaneously. At the end of the incubation period, cell viability was determined using the calcein method. After calcein fluorescence readings were obtained, drained the cells and added fresh 0.15 ml of 1N NaOH (in 10% DMSO) per well. Cells were lysed by resuspension and incubation (60 °C/1 hr.). Then, 0.12 ml of this lysate was transferred to a fresh […] plate and measured OD405nm in a TECAN M1000 plate reader (estimate of relative melanin content). The spectrophotometric OD at 405nm for untreated cells (No active) is considered as 100% melanin content, with respect to this, treatment (active) percentage is calculated.

**Q.** With NC(=O)c1cccnc1 [B, Niacinamide] as the compound, how does the “% melanin inhibition” value read?
**A.** 7.4%

**Q.** NC(=O)c1cccnc1 [C, Niacinamide] was tested. Which “% melanin inhibition” value did it give?
**A.** 9.2%

**Q.** NC(=O)c1cccnc1 [D, Niacinamide] was tested. Which “% melanin inhibition” value did it give?
**A.** 6.1%

**Q.** CCCCCCC(O)CCCCCCCCCCC(=O)O (stereo not shown) [E, 12-hydroxystearic acid] was tested. Which “% melanin inhibition” value did it give?
**A.** 4.1%
